The text below walks through data of US12180193B2, “Accelerating fibrosarcoma protein degrading compounds and associated methods of use” (Arvinas Operations, Inc., priority 2020, dated 2024).

One may read the DC50 as the concentration at which degradation of the target reaches its halfway point. A word on the Dmax: it is the largest share of the target that was removed. A higher Dmax goes with a fuller loss of target.

The target of one test is T1, BRAF V600E (Homo sapiens, UniProt P15056, V600E).
T1 construct: expressed in transfected cells
T1 sequence (P15056 whole entry V600E): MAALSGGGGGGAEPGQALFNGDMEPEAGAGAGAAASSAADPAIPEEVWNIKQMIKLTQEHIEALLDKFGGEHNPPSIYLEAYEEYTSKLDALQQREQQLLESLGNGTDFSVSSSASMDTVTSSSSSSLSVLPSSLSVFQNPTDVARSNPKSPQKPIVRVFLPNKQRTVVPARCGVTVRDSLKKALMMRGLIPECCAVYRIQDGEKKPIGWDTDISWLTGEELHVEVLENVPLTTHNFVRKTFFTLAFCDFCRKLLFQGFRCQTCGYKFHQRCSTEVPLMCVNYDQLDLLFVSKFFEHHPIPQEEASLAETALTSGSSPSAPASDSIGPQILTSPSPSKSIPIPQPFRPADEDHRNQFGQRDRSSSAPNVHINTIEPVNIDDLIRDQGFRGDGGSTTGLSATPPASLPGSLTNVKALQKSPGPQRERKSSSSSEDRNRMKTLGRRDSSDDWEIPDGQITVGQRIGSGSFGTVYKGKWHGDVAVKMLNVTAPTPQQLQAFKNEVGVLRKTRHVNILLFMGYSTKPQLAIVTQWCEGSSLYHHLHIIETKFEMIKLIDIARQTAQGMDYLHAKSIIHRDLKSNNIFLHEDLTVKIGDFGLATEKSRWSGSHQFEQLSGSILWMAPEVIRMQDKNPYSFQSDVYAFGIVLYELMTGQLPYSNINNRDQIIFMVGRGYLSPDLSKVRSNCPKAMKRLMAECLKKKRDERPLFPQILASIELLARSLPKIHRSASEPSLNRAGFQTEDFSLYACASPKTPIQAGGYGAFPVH
Nature of the test: Cellular assay of target protein degradation, T-Rex 293 cells stably transfected with HA-BRAF_V600E (HA immunofluorescence, high content imaging). It is filed as cell-based. The note with it: T-Rex 293 HA-BRAF V600E; for DC50: half maximal degradation, read-out: BRaf V600E DC50; for Dmax: maximum degradation observed. The procedure, abridged: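 24 h compound exposure, 1 μM–0.1 nM final, 0.1% DMSO, 37 °C; cells induced with 1 ng/mL doxycycline. PFA fix, Triton permeabilize, anti-HA overnight 4 °C, Hoechst/phalloidin counterstain. Output: DC50, Dmax as % control.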

A further test has as its target T2, BRAF G466V (Homo sapiens, UniProt P15056, G466V).
T2 construct: expressed in transfected cells
Nature of the test: Cellular assay of target protein degradation, T-Rex 293 cells stably transfected with HA-BRAF G466V (HA immunofluorescence, high content imaging). It is filed as cell-based. The note with it: T-Rex 293 HA-BRAF G466V; for DC50: half maximal degradation, read-out: BRaf G466V DC50; for Dmax: maximum degradation observed. The procedure, abridged: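 24 h compound, 30 nM–3 pM final, 0.1% DMSO, 37° C; HA-BRAF G466V induced with 0.75 ng/mL doxycycline. PFA fix, Triton perm, anti-HA + Alexa fluor secondary, Hoechst/phalloidin counterstain; imaging. DC50, Dmax (% of control).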

T2 sequence (P15056 whole entry G466V): as the sequence (P15056 whole entry V600E) above, with G466V, E600V counted along it

In the case of `Nc1ccc(F)c(C(=O)c2c[nH]c3ncc(-c4ccc(N5CCC(CN6CCC(c7ccc8c(c7)CN([C@H]7CCC(=O)NC7=O)C8=O)CC6)CC5)cc4)cc23)c1F` [Compound 254, (3S)-3-(5-{1-[(1-{4-[3-(3-amino-2,6-difluorobenzoyl)-1H-pyrrolo[2,3-b]pyridin-5-yl]phenyl}piperidin-4-yl)methyl]piperidin-4-yl}-1-oxo-2,3-dihydro-1H-isoindol-2-yl) piperidine-2,6-dione], the DC50 on BRAF V600E is greater than 500 nM. For the same compound, at BRAF G466V, the 50% degradation concentration (DC50) is less than 1 nM and the Dmax was less than 35%.
For the compound `N#Cc1cc(-c2cnc3[nH]cc(C(=O)c4c(F)ccc(NS(=O)(=O)N5CC[C@@H](F)C5)c4F)c3c2)ccc1N1CCC(CN2CCC(c3ccc4c(c3)CN(C3CCC(=O)NC3=O)C4=O)CC2)CC1` (stereo partly drawn) [Compound 255, (3R)-N-[3-(5-{3-cyano-4-[4-({4-[2-(2,6-dioxopiperidin-3-yl)-1-oxo-2,3-dihydro-1H-isoindol-5-yl]piperidin-1-yl}methyl)piperidin-1-yl]phenyl}-1H-pyrrolo [2,3-b]pyridine-3-carbonyl)-2,4-difluorophenyl]-3-fluoropyrrolidine-1-sulfonamide], the DC50 at BRAF V600E was 5 to 50 nM; at BRAF G466V, less than 1 nM. For the same compound, the Dmax was 35 to 70% at BRAF V600E and greater than 70% on BRAF G466V.
For `COc1cc(-c2cnc3[nH]cc(C(=O)c4c(F)ccc(NS(=O)(=O)N5CC[C@@H](F)C5)c4F)c3c2)ccc1N1CCC(CN2CCC(c3ccc4c(c3)CN([C@H]3CCC(=O)NC3=O)C4=O)CC2)CC1` [Compound 256, (3R)-N-{3-[5-(4-{4-[(4-{2-[(3S)-2,6-dioxopiperidin-3-yl]-1-oxo-2,3-dihydro-1H-isoindol-5-yl}piperidin-1-yl)methyl]piperidin-1-yl}-3-methoxyphenyl)-1H-pyrrolo[2,3-b]pyridine-3-carbonyl]-2,4-difluorophenyl}-3-fluoropyrrolidine-1-sulfonamide], on BRAF V600E, the DC50 is 5 to 50 nM and the Dmax was in the range of 35 to 70%. In addition, on BRAF G466V, the DC50 was less than 1 nM and the Dmax was greater than 70%.
For `CNc1cc(-c2cnc3[nH]cc(C(=O)c4c(F)ccc(NS(=O)(=O)N5CC[C@@H](F)C5)c4F)c3c2)ccc1N1CCC(CN2CCC(c3ccc4c(c3)CN(C3CCC(=O)NC3=O)C4=O)CC2)CC1` (stereo partly drawn) [Compound 257, (3R)-N-[3-(5-{4-[4-({4-[2-(2,6-dioxopiperidin-3-yl)-1-oxo-2,3-dihydro-1H-isoindol-5-yl]piperidin-1-yl}methyl)piperidin-1-yl]-3-(methylamino)phenyl}-1H-pyrrolo[2,3-b]pyridine-3-carbonyl)-2,4-difluorophenyl]-3-fluoropyrrolidine-1-sulfonamide] the same measures were 5 to 50 nM, 35 to 70%, 1 to 10 nM and greater than 70%.
Turning to `O=C1CC[C@H](N2Cc3cc(N4CCC(CN5CCC6(CCN(c7ccc(-c8cnc9[nH]cc(C(=O)c%10c(F)ccc(NS(=O)(=O)N%11CC[C@@H](F)C%11)c%10F)c9c8)cc7F)CC6)C5)CC4)ccc3C2=O)C(=O)N1` [Compound 258, (3R)-N-{3-[5-(4-{2-[(1-{2-[(3S)-2,6-dioxopiperidin-3-yl]-1-oxo-2,3-dihydro-1H-isoindol-5-yl}piperidin-4-yl)methyl]-2,8-diazaspiro[4.5]decan-8-yl}-3-fluorophenyl)-1H-pyrrolo[2,3-b]pyridine-3-carbonyl]-2,4-difluorophenyl}-3-fluoropyrrolidine-1-sulfonamide], at BRAF V600E, the DC50 is less than 5 nM and the Dmax lay within 35 to 70%. Also, on BRAF G466V, the DC50 was less than 1 nM and the Dmax is 35 to 70%.
As to `O=C1CC[C@@H](N2Cc3cc(N4CCC(CN5CCC6(CCN(c7ccc(-c8cnc9[nH]cc(C(=O)c%10c(F)ccc(NS(=O)(=O)N%11CC[C@@H](F)C%11)c%10F)c9c8)cc7F)CC6)C5)CC4)ccc3C2=O)C(=O)N1` [Compound 259, (3R)-N-{3-[5-(4-{2-[(1-{2-[(3R)-2,6-dioxopiperidin-3-yl]-1-oxo-2,3-dihydro-1H-isoindol-5-yl}piperidin-4-yl)methyl]-2,8-diazaspiro[4.5]decan-8-yl}-3-fluorophenyl)-1H-pyrrolo[2,3-b]pyridine-3-carbonyl]-2,4-difluorophenyl}-3-fluoropyrrolidine-1-sulfonamide], on BRAF V600E, the DC50 was less than 5 nM and the Dmax lay within 35 to 70%. At BRAF G466V, the DC50 is less than 1 nM and the Dmax lay within 35 to 70%.
For `N#Cc1cc(-c2cnc3[nH]cc(C(=O)c4c(F)ccc(NS(=O)(=O)N5CC[C@@H](F)C5)c4F)c3c2)cc(C#N)c1N1CCC(CN2CCC(c3ccc4c(c3)CN([C@H]3CCC(=O)NC3=O)C4=O)CC2)CC1` [Compound 260, (3R)-N-{3-[5-(3,5-dicyano-4-{4-[(4-{2-[(3S)-2,6-dioxopiperidin-3-yl]-1-oxo-2,3-dihydro-1H-isoindol-5-yl}piperidin-1-yl)methyl]piperidin-1-yl}phenyl)-1H-pyrrolo [2,3-b]pyridine-3-carbonyl]-2,4-difluorophenyl}-3-fluoropyrrolidine-1-sulfonamide], on BRAF V600E, the DC50 is 5 to 50 nM and the Dmax fell in the range of 35 to 70%. For the same compound, on BRAF G466V, the DC50 was 1 to 10 nM and the Dmax was in the range of 35 to 70%.
Consider `N#Cc1cc(-c2cnc3[nH]cc(C(=O)c4c(F)ccc(NS(=O)(=O)N5CC[C@@H](F)C5)c4F)c3c2)cc(C#N)c1N1CCC(CN2CCC(c3ccc4c(c3)CN(C3CCC(=O)NC3=O)C4=O)CC2)CC1` (stereo partly drawn) [Compound 261, (3R)-N-[3-(5-{3,5-dicyano-4-[4-({4-[2-(2,6-dioxopiperidin-3-yl)-1-oxo-2,3-dihydro-1H-isoindol-5-yl]piperidin-1-yl}methyl)piperidin-1-yl]phenyl}-1H-pyrrolo [2,3-b]pyridine-3-carbonyl)-2,4-difluorophenyl]-3-fluoropyrrolidine-1-sulfonamide], for which the DC50 at BRAF V600E lay in the range of 5 to 50 nM; on BRAF G466V, 1 to 10 nM. Further, the Dmax was 35 to 70% on BRAF V600E and greater than 70% at BRAF G466V.
In the case of `C[C@H]1CC[C@H](C)N1S(=O)(=O)Nc1ccc(F)c(C(=O)c2c[nH]c3ncc(-c4ccc(N5CCC(CN6CCC(c7ccc8c(c7)CN([C@H]7CCC(=O)NC7=O)C8=O)CC6)CC5)cc4)cc23)c1F` [Compound 262, (2S,5S)-N-{3-[5-(4-{4-[(4-{2-[(3S)-2,6-dioxopiperidin-3-yl]-1-oxo-2,3-dihydro-1H-isoindol-5-yl}piperidin-1-yl)methyl]piperidin-1-yl}phenyl)-1H-pyrrolo [2,3-b]pyridine-3-carbonyl]-2,4-difluorophenyl}-2,5-dimethylpyrrolidine-1-sulfonamide], on BRAF V600E, the DC50 lay within 5 to 50 nM and the Dmax was less than 35%. Besides, on BRAF G466V, the DC50 was in the range of 1 to 10 nM and the Dmax lay within 35 to 70%.
For `C[C@H]1CC[C@H](C)N1S(=O)(=O)Nc1ccc(F)c(C(=O)c2c[nH]c3ncc(-c4ccc(N5CCC(CN6CCC(c7ccc8c(c7)CN(C7CCC(=O)NC7=O)C8=O)CC6)CC5)cc4)cc23)c1F` (stereo partly drawn) [Compound 263, (2S,5S)-N-[3-(5-{4-[4-({4-[2-(2,6-dioxopiperidin-3-yl)-1-oxo-2,3-dihydro-1H-isoindol-5-yl]piperidin-1-yl}methyl)piperidin-1-yl]phenyl}-1H-pyrrolo[2,3-b]pyridine-3-carbonyl)-2,4-difluorophenyl]-2,5-dimethylpyrrolidine-1-sulfonamide] the same measures were 50 to 500 nM, less than 35%, 1 to 10 nM and 35 to 70%.
Take `C[C@H]1CCCN1S(=O)(=O)Nc1ccc(F)c(C(=O)c2c[nH]c3ncc(-c4ccc(N5CCC(CN6CCC(c7ccc8c(c7)CN(C7CCC(=O)NC7=O)C8=O)CC6)CC5)cc4)cc23)c1F` (stereo partly drawn) [Compound 264, (2S)-N-[3-(5-{4-[4-({4-[2-(2,6-dioxopiperidin-3-yl)-1-oxo-2,3-dihydro-1H-isoindol-5-yl]piperidin-1-yl}methyl)piperidin-1-yl]phenyl}-1H-pyrrolo[2,3-b]pyridine-3-carbonyl)-2,4-difluorophenyl]-2-methylpyrrolidine-1-sulfonamide]: at BRAF V600E, the DC50 was in the range of 5 to 50 nM and the Dmax is 35 to 70%. Further, on BRAF G466V, the DC50 lay within 1 to 10 nM and the Dmax was in the range of 35 to 70%.
Take `CCc1ccc(NS(=O)(=O)N2CC[C@@H](F)C2)c(F)c1C(=O)c1c[nH]c2ncc(-c3ccc(N4CCC(CN5CCC(c6ccc7c(c6)CN([C@H]6CCC(=O)NC6=O)C7=O)CC5)CC4)cc3)cc12` [Compound 265, (3R)-N-{3-[5-(4-{4-[(4-{2-[(3S)-2,6-dioxopiperidin-3-yl]-1-oxo-2,3-dihydro-1H-isoindol-5-yl}piperidin-1-yl)methyl]piperidin-1-yl}phenyl)-1H-pyrrolo [2,3-b]pyridine-3-carbonyl]-4-ethyl-2-fluorophenyl}-3-fluoropyrrolidine-1-sulfonamide]: the half-maximal degradation concentration (DC50) was greater than 500 nM on BRAF V600E and greater than 30 nM on BRAF G466V.
For `CCc1ccc(NS(=O)(=O)N2CC[C@@H](F)C2)c(F)c1C(=O)c1c[nH]c2ncc(-c3ccc(N4CCC(CN5CCC(c6ccc7c(c6)CN(C6CCC(=O)NC6=O)C7=O)CC5)CC4)cc3)cc12` (stereo partly drawn) [Compound 266, (3R)-N-[3-(5-{4-[4-({4-[2-(2,6-dioxopiperidin-3-yl)-1-oxo-2,3-dihydro-1H-isoindol-5-yl]piperidin-1-yl}methyl)piperidin-1-yl]phenyl}-1H-pyrrolo[2,3-b]pyridine-3-carbonyl)-4-ethyl-2-fluorophenyl]-3-fluoropyrrolidine-1-sulfonamide] the same measures were greater than 500 nM and greater than 30 nM.
